Results as given in PubChem BioAssay AID588523 (Johns Hopkins Ion Channel Center, 2011).
Calls of active or inactive are those of the source.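 Rule for the calls: active = IC50 below 100 µM from duplicate concentration-response curves; inactive = IC50 above 100 µM.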

Molecular target: Regulator of G-protein signaling 4 (Rattus norvegicus) (UniProt P49799)
Experiment: inhibitors of RGS4–Galphao protein interaction, dose response, biochemical, rat RGS4, AlF4-dependent, flow cytometry bead assay (AID 588523)
Settings: FCPIA, RGS4-Galpha-o binding, bead fluorescence

Regulator of G-protein signaling 4 (Rattus norvegicus), sequence (P49799 whole entry, looked up): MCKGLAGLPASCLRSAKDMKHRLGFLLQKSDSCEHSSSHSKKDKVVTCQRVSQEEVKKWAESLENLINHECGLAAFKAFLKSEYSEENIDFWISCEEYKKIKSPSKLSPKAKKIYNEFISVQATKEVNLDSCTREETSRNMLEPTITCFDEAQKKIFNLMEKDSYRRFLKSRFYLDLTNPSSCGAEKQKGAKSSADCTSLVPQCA

Cc1c(NC(=O)c2coc(=O)c(Br)c2)c(=O)n(-c2ccccc2)n1C
IC50: > 110 µM (inactive)

COC(=O)CSc1[nH]c2cc(C)ccc2c1[N+](=O)[O-]
IC50: > 110 µM (inactive)

COc1ccc(-c2csc(NC3OC(=O)c4c3ccc(OC)c4OC)n2)cc1OC (stereo not drawn)
IC50: > 110 µM (inactive)

CC1=NN(c2ccc(C(=O)O)cc2)C(=O)/C1=C\c1ccc(OC(=O)c2cccs2)cc1
IC50: 44 µM

Cc1nc2c(=O)n(C)c(=O)n(C)c2nc1Cl
IC50: 78.7 µM

COc1ccc(NC(=O)/C(C#N)=C\c2ccc(Sc3nncn3C)c([N+](=O)[O-])c2)cc1
IC50: > 110 µM (inactive)

CN1C(=O)S/C(=C\c2ccccc2OCc2ccc(C(=O)O)cc2)C1=O
IC50: > 110 µM (inactive)

COc1ccc(OC)c(N2C(=O)NC(=O)/C(=C/c3ccc([N+](=O)[O-])s3)C2=O)c1
IC50: 11.9 µM

Cn1c(OCc2ccco2)nc2c1c(=O)n(Cc1ccc(Cl)c(Cl)c1)c(=O)n2C
IC50: > 110 µM (inactive)

Cc1csc(NC(=O)COCC(=O)O)c1-c1nc2ccccc2s1
IC50: > 110 µM (inactive)

O=C(CCNc1ccc(F)cc1)c1ccco1
IC50: > 110 µM (inactive)

Cc1cc(-c2n[nH]c(=S)n2/N=C/C(Br)=C/c2ccccc2)n[nH]1
IC50: 26.1 µM

Oc1c(Cl)cc(Cl)c2c1NCCC2
IC50: > 110 µM (inactive)

CCOCCCNC(=O)/C(C#N)=C\c1ccc(Cl)c([N+](=O)[O-])c1
IC50: > 110 µM (inactive)

Cc1ccc(/C=C/C(=O)N2CC(C)CC(C)C2)o1 (stereo not drawn)
IC50: 74.9 µM

Cc1ccccc1OCc1nnc(SCC(=O)Nc2ccc3c(c2)oc2ccccc23)n1C
IC50: > 110 µM (inactive)

O=C(O)c1ccc2c(c1)C(=O)N(c1cccc(C(=O)/C=C/c3ccccc3)c1)C2=O
IC50: > 110 µM (inactive)

O=C(/C=C/c1ccncc1)c1ccc2c(c1)OCCO2
IC50: 82.2 µM

CN(C)c1ccc(C(C[N+](=O)[O-])c2c(N)n(C)c(=O)n(C)c2=O)c(F)c1C#N (stereo not drawn)
IC50: > 110 µM (inactive)

O=C1N=c2ccccc2=C1c1c(O)n(-c2cccc(F)c2)[nH]c1=O
IC50: 10.3 µM

CCOC(=O)/C=C/C(=O)OCC(=O)N1CCN(C(=O)c2ccco2)CC1
IC50: 73.9 µM

CCCN1CCc2cc(O)cc3c2[C@H]1Cc1ccc(O)c(O)c1-3
IC50: 9.4 µM

O=C1NC(=S)N(c2ccccc2F)C(=O)/C1=C\c1cccs1
IC50: 21.3 µM

Cc1ccc(C(C2=C(O)CC(C)(C)CC2=O)C2C(=O)CC(C)(C)CC2=O)o1 (stereo not drawn)
IC50: > 110 µM (inactive)

O=C1/C(=C\c2ccc(Cl)cc2Cl)N2CCC1CC2
IC50: > 110 µM (inactive)

COc1cc2c(cc1O)C(SC)=NC(C)(C)C2
IC50: > 110 µM (inactive)

N#C/C(=C/c1ccc(Cl)c([N+](=O)[O-])c1)c1ccccn1
IC50: > 110 µM (inactive)

O=C1/C(=C\c2ccc(Cl)c(Cl)c2)N2CCC1CC2
IC50: > 110 µM (inactive)

Cc1cc2nc(CS)[nH]c2cc1C
IC50: 23.6 µM

CN1C/C(=C/c2ccncc2)C(=O)/C(=C/c2ccncc2)C1
IC50: 5.4 µM

Cc1cccc(N2C(=O)/C(=C/c3ccc(C(=O)O)cc3)c3ccccc3C2=O)c1
IC50: > 110 µM (inactive)

Cc1ccc(CNC(=O)c2cn(C3CCCCC3)c(=O)c3c2c2ccccc2n3C)o1
IC50: > 110 µM (inactive)

O=C(O)c1ccc(/C=C2\COc3ccccc3C2=O)cc1
IC50: > 110 µM (inactive)

NC(=O)N/N=C/c1c(Sc2nnnn2-c2ccccc2)nc2ccccn2c1=O
IC50: > 110 µM (inactive)

COc1ccc(C(C[N+](=O)[O-])c2c(-c3ccccc3)cc3ccccn23)cc1OC (stereo not drawn)
IC50: > 110 µM (inactive)

CN(C)C(=O)COc1ccc(C(=O)/C=C/c2cccnc2)cc1
IC50: > 110 µM (inactive)

CC1=NOC(=O)/C1=C/c1ccc(O)cc1
IC50: > 110 µM (inactive)

COc1ccc2cc(C3C(C#N)=C(N)OC(C)=C3C(C)=O)c(Cl)nc2c1 (stereo not drawn)
IC50: > 110 µM (inactive)

O=[N+]([O-])c1ccc(O)c(/C=N/NC(=S)Nc2ccc(Cl)cc2Cl)c1
IC50: > 110 µM (inactive)

COC(=O)CSc1[nH]c2ccccc2c1[N+](=O)[O-]
IC50: > 110 µM (inactive)

CC(C)(C)c1ccc(Cn2nnc3c(=O)[nH]c(C4CCN(C(=O)Cc5cccs5)CC4)nc32)cc1
IC50: > 110 µM (inactive)

CC(C)OP(=O)(OC(C)C)/C(C=O)=N\Nc1ccc([N+](=O)[O-])cc1
IC50: > 110 µM (inactive)

N[C@@H](Cc1cc(Br)c(O)c(Br)c1)C(=O)O
IC50: > 110 µM (inactive)

CN1CCc2cc(O)cc3c2[C@H]1Cc1ccc(O)c(O)c1-3
IC50: 7.5 µM

CCOCCCNC(=O)/C(C#N)=C\c1ccc([N+](=O)[O-])o1
IC50: > 110 µM (inactive)

CN(C)c1oc(-c2ccccc2[N+](=O)[O-])nc1C#N
IC50: > 110 µM (inactive)

O=C/C=C/c1c(-c2ccccc2)cc2oc3ccccc3cc1-2
IC50: > 110 µM (inactive)

O=C(O)c1ccc(/C=C/C(=O)c2ccc3c(c2)OCCCO3)cc1
IC50: > 110 µM (inactive)

CCOC(=O)C1=C(O)/C(=C\c2cccc(OC)c2)N=C1C
IC50: > 110 µM (inactive)

O=C1C=C(NC2=CC3OC(c4ccccc4)OCC3OC2=O)CCC1 (stereo not drawn)
IC50: > 110 µM (inactive)

Cc1ccc(C(C2C(=O)CC(C)(C)CC2=O)C2C(=O)CC(C)(C)CC2=O)s1
IC50: 86.8 µM

COc1ccc(NC(=O)/C(Cl)=C(/Cl)S(=O)Cc2ccccc2)cn1 (stereo not drawn)
IC50: 1.7 µM

O=C1/C(=C/c2ccncc2)CCC/C1=C\c1ccncc1
IC50: 13.6 µM

O=C(N/N=C/c1cc([N+](=O)[O-])ccc1O)NC12CC3CC(CC(C3)C1)C2
IC50: > 110 µM (inactive)

Cc1ccc(/C=C2\C(=O)NC(=S)N(c3ccc(F)cc3)C2=O)s1
IC50: 22.1 µM

CN1C(=O)/C(=C\c2ccc(Br)s2)C(=O)NC1=S
IC50: 12.5 µM

COc1cccc(/C=C/C(=O)c2c(O)cc(C)oc2=O)c1O
IC50: > 110 µM (inactive)

O=C(/C=C/c1ccc([N+](=O)[O-])cc1)c1ccco1
IC50: > 110 µM (inactive)
